Here are results for one compound from patent publication US8962666B2, “Method for improving cartilage repair and/or preventing cartilage degeneration in a joint” (Maastricht University, priority 2009, dated 2015).

The test system of data set [1] is cartilage only defect on medial femoral condyles. Description: Goat cartilage defect repair (MACI / microfracture) with Bio-Gel containing Parecoxib in Hoffa's fatpad. It is filed as in vivo, Dutch milk goats. To be noted: controlled release from Hoffa's fatpad; summary statement. As for the experimental part: Surgical procedure: Skeletally mature Dutch milk goats were used for this study. During the first operation, both knee joints of the goats were opened using a medial parapatellar incision. Using a 8 mm in diameter dermal punch a cartilage only defect was created on both medial femoral condyles. The cartilage of both sides was minced and after an overnight collagenase treatment, cells were isolated and expanded in monolayer. […] Consequently these cells were seeded and allowed to attach in a collagen carrier for 24 hrs as described earlier as Matrix-supported Autologous Chondrocyte Implantation (MACI). Hereafter a second operation was performed. The knee joints were opened and one the cartilage defect of one knee joint was repaired using the MACI method. The defect in the other knee joint was repaired using microfracturing as described by […] et al. In 10 goats Hoffa's fatpad was injected (as described earlier) with a Bio-Gel containing 1.5 mg of Parecoxib, in 10 goats Hoffa's fatpad was injected (as described earlier) with a Bio-Gel only, and in 10 goats no injection was performed. Goats were allowed full-weight bearing after both surgical procedures. Histological evaluation: 3 months after the second operation, goats were sacrificed. […] Mankin scores for OA grading and O'Driscoll scores for cartilage repair were scored by 2 blinded individuals.

Data set [2] deals with anterior cruciate ligament-transected (ACLT) knees. Conditions: cited from earlier work.
Data set [3] in a line: Parecoxib concentration in synovial joint fluid after Bio-Gel injection in Hoffa's fat pad (HPLC). It counts as in vivo, Wistar rats. To be noted: 0.1 ml Bio-Gel containing 500 μg Parecoxib in Hoffa's fat pad. As for the experimental part: After induction of general anaesthesia, both knees of Wistar rats were shaved and prepared for aseptic surgery. The centre of the patella tendon was identified. A 28 G needle with a 1 ml syringe was used to penetrate the centre patella tendon. Directly after the patella tendon is penetrated and 0.1 ml of the Bio-Gel containing 500 μg of Parecoxib was injected in Hoffa's fad pad. Directly after injection, 1 day, 5 days, 10 days and 30 days after injection the rats were sacrificed.
The concentration of parecoxib in the SJF was examined using a high-performance liquid chromatography

Where [4] appears, read: intra-articular parecoxib injection.

Molecules are shown by their SMILES.

Consider `CCC(=O)NS(=O)(=O)c1ccc(-c2c(-c3ccccc3)noc2C)cc1` [Parecoxib], for which, in data set [1], the “cartilage repair using MACI and microfracturing” value is “significantly improved”. The cartilage degeneration result in data set [2] (ACLT knees, intra-articular injection) is “significant inhibition”. Moreover, the “effect on cartilage and synovium of normal knees” value in data set [2] (intra-articular parecoxib alone, naive rats) is on record as “did not have any effect”. Moreover, in data set [2] (setting [4]), the “glutamate and aspartate levels” value was “reduced”; the synovial inflammation result is listed as “suppressed”. Besides, in data set [3] (after 30 days follow), the “intra-articular level of parecoxib” value was “remained stable”. Also, the “time of maximum parecoxib level in the SJF” value in data set [3] (time after injection) came out at 1 days.
